Assay results from patent publication US20200397795A1, “PROPHYLACTIC TREATMENT OF VENOUS THROMBOEMBOLISM” (JANSSEN PHARMACEUTICALS, INC., priority 2019, published 2020).

Columns and labels:
[1] = tested on: events prevented vs bleeding events caused; experiment: MARINER benefit-risk analysis (excess number of events per 10,000 subjects); type: in vivo, human
Description: The benefit-risk of rivaroxaban versus placebo was evaluated based on the excess number of events between treatments for events intended to be prevented (benefits) and events that were caused (risks).
Although the primary efficacy endpoint was not statistically different between rivaroxaban and placebo, the benefit-risk analyses were conducted to further assess the totality of the data. Based on the ITT analysis set and Up-to-Day 45 analysis phase, for 10,000 subjects treated with rivaroxaban up to 45 days, on average, rivaroxaban would prevent 27 events of the composite of symptomatic VTE and VTE-related death, while causing 12 more major bleeding events than with placebo. […] Therefore, focusing instead on major thrombotic events that were fatal or caused potentially irreversible harm, on average, rivaroxaban would prevent 55 events of the composite of nonfatal PE, MI, non-hemorrhagic stroke, and non-hemorrhagic ACM, while causing 2 more events of the composite of critical site bleeding and fatal bleeding than with placebo.

[2] = tested on: events prevented vs bleeding events caused; type: in vivo, human
Description: The same time period was utilized, preventing double counting for fatal bleeds, with all bleeds through Day 35 included (even if off treatment), and bleeding deaths were not counted as CV deaths. Using the primary endpoint, there would be 131 fewer events in the rivaroxaban group with a number-to-treat to benefit (NNT) of 77 to prevent one event, but this was counterbalanced by causing 51 more major bleeds. The benefit risk profile was improved in the subpopulation, with 182 events prevented and only 18 major bleeds caused, with NNT and number-to-treat to harm (NNH) of 55 and 560, respectively. […] More ischemic events were prevented than hemorrhagic events caused in the subpopulation in all five pairs of clinically meaningful endpoints which included asymptomatic and symptomatic VTE and VTE-related death, major bleeding, and fatal and irreversible thrombotic and bleed events. For 35 days of treatment, the number need to treat to prevent 1 event ranged from 55 to 481 for the 5 pairs, while the number needed to harm ranged from 455-1,067.

[3] = tested on: bleeding events in high-risk, medically ill subjects; experiment: MARINER (Study 2): safety, ISTH bleeding and adverse events
Description: The safety objectives were to compare rivaroxaban with placebo in the following bleeding outcomes in high-risk, medically ill subjects: • Major bleeding using validated International Society on Thrombosis and Haemostasis (ISTH) bleeding criteria. • Non-major clinically relevant (NMCR) bleeding. • Other bleeding.
Safety assessment was based on bleeding events classified by validated ISTH criteria as major bleeding (principal safety outcome), NMCR bleeding, or Other bleeding. […] The safety outcome of NMCR bleeding was defined as overt bleeding not meeting ISTH criteria for major bleeding, but associated with medical intervention, unscheduled contact (visit or telephone call) with a physician, (temporary) cessation of study treatment, or associated with discomfort for the subject such as pain or impairment of activities of daily life. […] Overall safety was also assessed.
The principal safety outcome was major bleeding based on validated ISTH criteria. Treatments were compared using the same statistical model (i.e., Cox proportional hazards model) as that for the primary efficacy outcome. The same analyses were used for NMCR bleeding. Safety analyses were based on the safety analysis set and on-treatment analysis phase. Bleeding events were analyzed based on time from randomization to the first occurrence.

[4] = 10 mg dose stratum, for 10,000 subjects
[5] = for 10,000 subjects treated up to 45 days
[6] = subpopulation, primary endpoint

O=C(NC[C@H]1CN(c2ccc(N3CCOCC3=O)cc2)C(=O)O1)c1ccc(Cl)s1 [Rivaroxaban, 5-chloro-N-({(5S)-2-oxo-3-[4-(3-oxo-4-morpholinyl)phenyl]-1,3,oxazolidin-5-yl}methyl)-2-thiophenecarboxamide]
Additional critical site and fatal bleeding vs placebo ([1]; 10 mg dose stratum): no additional | Events of composite of nonfatal PE, MI, non-hemorrhagic stroke, non-hemorrhagic ACM prevented vs placebo [1, 4]: 63 events | Events of composite of symptomatic VTE and VTE-related death prevented vs placebo [1, 4]: 33 events | Events of composite of nonfatal PE, MI, non-hemorrhagic stroke, non-hemorrhagic ACM prevented vs placebo [1, 5]: 55 events | More events of composite of critical site bleeding and fatal bleeding than with placebo [1, 5]: 2 events | Events of composite of symptomatic VTE and VTE-related death prevented vs placebo ([1]; for 10,000 subjects treated up to 45 days, ITT): 27 events | More major bleeding events caused than with placebo ([1]; human, in vivo): 12 events | Number-to-treat to benefit (NNT) to prevent one event ([2]; entire MAGELLAN population, primary endpoint): 77 | Fewer primary endpoint events in the rivaroxaban group ([2]; entire MAGELLAN population, through Day 35): 131 events | Major bleeds caused ([2]; human, in vivo, 35 day): 18 | More major bleeds caused ([2]; human, in vivo, 35 day): 51 | Number needed to harm, range over 5 benefit-risk pairs ([2]; human, in vivo, 35 day): 455-1,067 | Number-to-treat to harm (NNH) ([2]; human, in vivo, 35 day): 560 | Events prevented [2, 6]: 182 events | NNT [2, 6]: 55 | Fatal bleeding, incidence ([3]; 10 mg dose stratum): 0.04% | Fatal bleeding, incidence ([3]; on-treatment, safety analysis set): 0.03% | AEs with outcome of death, n (%) ([3]; safety analysis set): 95 (1.6) %
